Reference: patent US20240050428A1 (Cullgen (Shanghai), Inc., priority 2020, published 2024)
Read-outs that look alike come from different tables or passages of the source.

Columns and labels:
MV4;11 cells = test: Cell viability assay (CellTiter-Glo) in MV4;11 cells, alone or with gilteritinib; format: cell-based; conditions: Homo sapiens, MV4-11, 72 h, MV4;11 cells, three days, CellTiter-Glo, read-out: MV4
MOLM-13 cells = test: Cell viability assay (CellTiter-Glo) in MOLM-13 cells, alone or with gilteritinib; format: cell-based; conditions: Homo sapiens, MOLM-13, 72 h, MOLM-13 cells, three days, CellTiter-Glo
[1] = compound alone (without gilteritinib), 11 IC50
[2] = with gilteritinib 10 nM, 11 IC50 gilteritinib
[3] = compound alone (without gilteritinib), read-out: MOLM-13 IC50
[4] = with gilteritinib 20 nM, read-out: MOLM-13 IC50 gilteritinib

Row | Structure (SMILES) | IC50 (MV4;11 cells; [1]) [nM] | IC50 (MV4;11 cells; [2]) [nM] | IC50 (MOLM-13 cells; [3]) [nM] | IC50 (MOLM-13 cells; [4]) [nM]
1 | O=C1CCC(N2Cc3c(Nc4ccnc(Nc5cccc(N6CCC(c7ccccc7)CC6)c5)n4)cccc3C2=O)C(=O)N1 (centres unmarked) [GS-075] | 100 to 1000 | 10 to 100 | 100 to 1000 | 10 to 100
2 | O=C1CCC(N2Cc3c(Nc4ccnc(Nc5cccc(N6CCN(c7ccccn7)CC6)c5)n4)cccc3C2=O)C(=O)N1 (centres unmarked) [GS-076, 3-(1-Oxo-4-((2-((3-(4-(pyridin-2-yl)piperazin-1-yl)phenyl)amino)pyrimidin-4-yl)amino)isoindolin-2-yl)piperidine-2,6-dione] | 10 to 100 | < 10 | 10 to 100 | < 10
3 | O=C1CCC(N2Cc3c(Nc4ccnc(Nc5cccc(N6CCC(c7ccccn7)CC6)c5)n4)cccc3C2=O)C(=O)N1 (centres unmarked) [GS-077, 3-(1-Oxo-4-((2-((3-(4-(pyridin-2-yl)piperidin-1-yl)phenyl)amino)pyrimidin-4-yl)amino)isoindolin-2-yl)piperidine-2,6-dione] | < 10 | < 10 | 10 to 100 | < 10
4 | O=C1CCC(N2Cc3c(Nc4ccnc(Nc5cccc(N6CCN(c7ncccn7)CC6)c5)n4)cccc3C2=O)C(=O)N1 (centres unmarked) [GS-078, 3-(1-Oxo-4-((2-((3-(4-(pyrimidin-2-yl)piperazin-1-yl)phenyl)amino)pyrimidin-4-yl)amino)isoindolin-2-yl)piperidine-2,6-dione] | 10 to 100 | < 10 | 10 to 100 | < 10
5 | O=C1CCC(N2Cc3c(Nc4ccnc(Nc5cccc(C(=O)N6CCC(n7cc(-c8cnc9ccccc9n8)cn7)CC6)c5)n4)cccc3C2=O)C(=O)N1 (centres unmarked) [GS-079, 3-(1-Oxo-4-((2-((3-(4-(4-(quinoxalin-2-yl)-1H-pyrazol-1-yl)piperidine-1-carbonyl)phenyl)amino)pyrimidin-4-yl)amino)isoindolin-2-yl)piperidine-2,6-dione] | 100 to 1000 | 10 to 100 | > 1000 | 100 to 1000
6 | O=C1CCC(N2Cc3c(Nc4ccnc(Nc5cccc(C(=O)N6CCN(c7ccccn7)CC6)c5)n4)cccc3C2=O)C(=O)N1 (centres unmarked) [GS-080, 3-(1-Oxo-4-((2-((3-(4-(pyridin-2-yl)piperazine-1-carbonyl)phenyl)amino)pyrimidin-4-yl)amino)isoindolin-2-yl)piperidine-2,6-dione] | > 1000 | 100 to 1000 | > 1000 | 100 to 1000
7 | O=C1CCC(N2Cc3c(Nc4ccnc(N5CCC(n6cc(-c7cnc8ccccc8n7)cn6)CC5)n4)cccc3C2=O)C(=O)N1 (centres unmarked) [GS-081, 3-(1-Oxo-4-((2-(4-(4-(quinoxalin-2-yl)-1H-pyrazol-1-yl)piperidin-1-yl)pyrimidin-4-yl)amino)isoindolin-2-yl)piperidine-2,6-dione] | > 1000 | > 1000 | > 1000 | > 1000
8 | O=C1CCC(N2Cc3c(Nc4ccnc(Nc5cccc(-n6cc(-c7cnc8ccccc8n7)cn6)c5)n4)cccc3C2=O)C(=O)N1 (centres unmarked) [GS-084, 3-(1-Oxo-4-((2-((3-(4-(quinoxalin-2-yl)-1H-pyrazol-1-yl)phenyl)amino)pyrimidin-4-yl)amino)isoindolin-2-yl)piperidine-2,6-dione] | > 1000 | > 1000 | > 1000 | > 1000
9 | O=C1CCC(N2Cc3c(Nc4ccnc(NCCC(=O)N5CCC(n6cc(-c7cnc8ccccc8n7)cn6)CC5)n4)cccc3C2=O)C(=O)N1 (centres unmarked) [GS-085, 3-(1-Oxo-4-((2-((3-oxo-3-(4-(4-(quinoxalin-2-yl)-1H-pyrazol-1-yl)piperidin-1-yl)propyl)amino)pyrimidin-4-yl)amino)isoindolin-2-yl)piperidine-2,6-dione] | > 1000 | > 1000 | > 1000 | > 1000
10 | O=C1CCC(N2Cc3c(Nc4ccnc(NCCCN5CCC(n6cc(-c7cnc8ccccc8n7)cn6)CC5)n4)cccc3C2=O)C(=O)N1 (centres unmarked) [GS-088, 3-(1-Oxo-4-((2-((3-(4-(4-(quinoxalin-2-yl)-1H-pyrazol-1-yl)piperidin-1-yl)propyl)amino)pyrimidin-4-yl)amino)isoindolin-2-yl)piperidine-2,6-dione] | > 1000 | > 1000 | > 1000 | > 1000

Other lines, results leading:

Row | IC50 (MV4;11 cells; [1]) [nM] | IC50 (MV4;11 cells; [2]) [nM] | IC50 (MOLM-13 cells; [3]) [nM] | IC50 (MOLM-13 cells; [4]) [nM] | Structure (SMILES)
11 | 100 to 1000 | 10 to 100 | 100 to 1000 | 100 to 1000 | O=C1CCC(N2Cc3cc(Nc4ccnc(Nc5ccc6c(c5)CC(N5CCC(n7cc(-c8cnc9ccccc9n8)cn7)CC5)C6)n4)ccc3C2=O)C(=O)N1 (centres unmarked) [GS-073, 3-(1-Oxo-5-((2-((2-(4-(4-(quinoxalin-2-yl)-1H-pyrazol-1-yl)piperidin-1-yl)-2,3-dihydro-1H-inden-5-yl)amino)pyrimidin-4-yl)amino)isoindolin-2-yl)piperidine-2,6-dione]
12 | > 1000 | > 1000 | > 1000 | > 1000 | O=C1CCC(N2Cc3c(Nc4ccnc(N5CCC(N6CCC(n7cc(-c8cnc9ccccc9n8)cn7)CC6)C5)n4)cccc3C2=O)C(=O)N1 (centres unmarked) [GS-074, 3-(1-Oxo-4-((2-(3-(4-(4-(quinoxalin-2-yl)-1H-pyrazol-1-yl)piperidin-1-yl)pyrrolidin-1-yl)pyrimidin-4-yl)amino)isoindolin-2-yl)piperidine-2,6-dione]
13 | > 1000 | 100 to 1000 | > 1000 | 100 to 1000 | O=C(CC1CC(N2CCC(n3cc(-c4cnc5ccccc5n4)cn3)CC2)C1)NCc1ccc2c(c1)CN(C1CCC(=O)NC1=O)C2=O (centres unmarked) [GS-082, N-((2-(2,6-Dioxopiperidin-3-yl)-1-oxoisoindolin-5-yl)methyl)-2-(3-(4-(4-(quinoxalin-2-yl)-1H-pyrazol-1-yl)piperidin-1-yl)cyclobutyl)acetamide]
14 | 10 to 100 | 10 to 100 | 100 to 1000 | 10 to 100 | O=C(CC1CC1N1CCC(n2cc(-c3cnc4ccccc4n3)cn2)CC1)NCc1ccc2c(c1)CN(C1CCC(=O)NC1=O)C2=O (centres unmarked) [GS-083, N-((2-(2,6-Dioxopiperidin-3-yl)-1-oxoisoindolin-5-yl)methyl)-2-(2-(4-(4-(quinoxalin-2-yl)-1H-pyrazol-1-yl)piperidin-1-yl)cyclopropyl)acetamide]
15 | > 1000 | 100 to 1000 | > 1000 | > 1000 | O=C(CC1CCCC(N2CCC(n3cc(-c4cnc5ccccc5n4)cn3)CC2)C1)NCc1ccc2c(c1)CN(C1CCC(=O)NC1=O)C2=O (centres unmarked) [GS-086, N-((2-(2,6-dioxopiperidin-3-yl)-1-oxoisoindolin-5-yl)methyl)-2-(3-(4-(4-(quinoxalin-2-yl)-1H-pyrazol-1-yl)piperidin-1-yl)cyclohexyl)acetamide]
16 | < 10 | < 10 | < 10 | < 10 | O=C(CNc1cccc(N2CCC(n3cc(-c4cnc5ccccc5n4)cn3)CC2)c1)NCc1scc2c1CN(C1CCC(=O)NC1=O)C2=O (centres unmarked) [GS-087, N-((5-(2,6-dioxopiperidin-3-yl)-4-oxo-5,6-dihydro-4H-thieno[3,4-c]pyrrol-1-yl)methyl)-2-((3-(4-(4-(quinoxalin-2-yl)-1H-pyrazol-1-yl)piperidin-1-yl)phenyl)amino)acetamide]
17 | > 1000 | > 1000 | > 1000 | > 1000 | O=C(CC1CCC(N2CCC(n3cc(-c4cnc5ccccc5n4)cn3)CC2)CC1)NCc1ccc2c(c1)CN(C1CCC(=O)NC1=O)C2=O (centres unmarked) [GS-089, N-((2-(2,6-dioxopiperidin-3-yl)-1-oxoisoindolin-5-yl)methyl)-2-(4-(4-(4-(quinoxalin-2-yl)-1H-pyrazol-1-yl)piperidin-1-yl)cyclohexyl)acetamide]
